Here are results for eight molecules from patent publication US20230329236A1, “HERBICIDAL PYRIMIDINE DERIVATIVES” (MoA Technology Limited, priority 2020, published 2023).

Test [1] has as its system Lolium multiflorum (LOLMU). In words: Post-emergence glasshouse test, visual injury, LOLMU. Type of test: in vivo. The settings on record: 336 h, Table 3, post-emergence, 14±1 days post application. Summed up:
(§1)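 In this glasshouse test, sandy-loam-grown plants at BBCH 12-14 received a foliar spray of compound in 0.5% Tween 20 acetone/water (50:50) at rates expressed in g/ha. Injury was rated visually against untreated plots two weeks (14±1 d) later.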

Test [2] has as its system Echinochloa crus-gaffi (ECHCG). The test can be described thus: Post-emergence glasshouse test, visual injury, ECHCG. The settings on record: 336 h, Table 3, post-emergence, 14±1 days post application. Type of test: in vivo, Echinochloa crus-galli. A digest of the protocol:
as §1

A further test concerns Veronica persica (VERPE). The test can be described thus: Post-emergence glasshouse test, visual injury, VERPE. Type of test: in vivo. As to conditions: 336 h, 14±1 days post application. A digest of the protocol: as §1
The subject of test [3] is Amaranthus retroflexus (AMARE). The test can be described thus: Post-emergence glasshouse test, visual injury, AMARE. Type of test: in vivo. As to conditions: 336 h, 14±1 days post application. A digest of the protocol:
as §1

In a further test the test system is Glycine max (GLXMA). In words: Post-emergence glasshouse test, visual injury, GLXMA. Format: in vivo. As to conditions: Table 4, post-emergence, 14±1 days post application. The procedure: (§2) Seeds of a variety of test species are grown in a sandy loam soil mixture, Lolium multiflorum (LOLMU), Amaranthus retroflexus (AMARE), Echinochloa crus-gaffi (ECHCG), Veronica persica (VERPE), Glycine max (GLXMA), Oryza sativa (ORYSA), Zea mays (ZEAMX), spring wheat (TRZAS), Ipomoea hederacea (IPOHE), Ipomoea purpurea (PHBPU), Stellaria media (STEME), Solanum nigrum (SOLNI), Digitaria sanguinalis (DIGSA), Setaria italica (SETIT), Alopecurus myosuroides (ALOMY) and Avena fatua (AVEFA).
(§3) After sowing, at growth stage BBCH 12-14 (post-emergence), the plants are sprayed with an aqueous spray solution derived from the formulation of the technical active ingredient in acetone/water (50:50) solution containing 0.5% Tween 20 (polyoxyethlyene sorbitan monolaureate, CAS RN 9005-64-5). The test compounds are applied at the required concentration of active ingredient in g/ha. The test plants are then grown in a glasshouse under controlled environmental conditions and watered regularly as required. After 14±1 days post application (for post-emergence test), the test is evaluated by assessing the percentage damage caused to the plants in comparison with the untreated plots. The biological activities for post-emergence testing are shown below (Table 3 and Table 4) as a % visual injury.

For another test, the system named is Oryza sativa (ORYSA). In words: Post-emergence glasshouse test, visual injury, ORYSA. Type of test: in vivo. As to conditions: Table 4, post-emergence, 14±1 days post application. How it is done: as §2, §3
The test system of a further test is Zea mays (ZEAMX). The test can be described thus: Post-emergence glasshouse test, visual injury, ZEAMX. Type of test: in vivo. As to conditions: Table 4, post-emergence, 14±1 days post application. The procedure: as §2, §3
In another test the test system is spring wheat (TRZAS). In words: Post-emergence glasshouse test, visual injury, TRZAS. The settings on record: Table 4, post-emergence, 14±1 days post application. Format: in vivo. How it is done:
as §2, §3

Test [4] relates to Ipomoea hederacea (IPOHE). The test can be described thus: Post-emergence glasshouse test, visual injury, IPOHE. Type of test: in vivo. The settings on record: Table 4, post-emergence, 14±1 days post application. How it is done:
as §2, §3

A further test has as its system Stellaria media (STEME). In words: Post-emergence glasshouse test, visual injury, STEME. Type of test: in vivo. The settings on record: Table 4, post-emergence, 14±1 days post application. The procedure: as §2, §3

By pest or weed control is commonly meant how far the test organism was held down. A low value points to weak suppression. On to `Cc1cc(-c2cnc(NCc3ccncc3)nc2C2CC2)on1` [Compound 20], for which the pest or weed control at 500 g/ha came out at 0% in test [1]; 0% in test [2]; 30% in the test with Veronica persica (VERPE) (Table 3, post-emergence); 70% in the test with Veronica persica (VERPE) (Table 4, post-emergence); 80% in test [3] (Table 3, post-emergence); 50% in test [3] (Table 4, post-emergence). For the same molecule, the pest or weed control at 125 g/ha in the test on Veronica persica (VERPE) (Table 4, post-emergence) came to 50%; in test [3] (Table 4, post-emergence), 0%. Besides, the pest or weed control at 250 g/ha was found to be 60% in the test with Veronica persica (VERPE) (Table 4, post-emergence) and 0% in test [3] (Table 4, post-emergence). Also, the pest or weed control at 1000 g/ha with Veronica persica (VERPE) (Table 4, post-emergence) worked out at 90%; in test [3] (Table 4, post-emergence), 90%. Besides, the “GLXMA % visual injury” value was found to be 30% in the test with Glycine max (GLXMA) (125 g/ha), 20% in the test with Glycine max (GLXMA) (250 g/ha), 40% with Glycine max (GLXMA) (500 g/ha) and 50% with Glycine max (GLXMA) (1000 g/ha). Further, the “ORYSA % visual injury” value in the test with Oryza sativa (ORYSA) (125 g/ha) amounted to 50%; with Oryza sativa (ORYSA) (250 g/ha) it was 60%; in the test with Oryza sativa (ORYSA) (500 g/ha), 30%; in the test on Oryza sativa (ORYSA) (1000 g/ha), 60%. Besides, the “ZEAMX % visual injury” value in the test with Zea mays (ZEAMX) (125 g/ha) was 20%; in the test with Zea mays (ZEAMX) (250 g/ha), 50%; in the test on Zea mays (ZEAMX) (500 g/ha), 50%; with Zea mays (ZEAMX) (1000 g/ha), 40%. The “TRZAS % visual injury” value with spring wheat (TRZAS) (125 g/ha) came out at 0%; with spring wheat (TRZAS) (250 g/ha), 0%; with spring wheat (TRZAS) (500 g/ha), 30%; in the test with spring wheat (TRZAS) (1000 g/ha) it was 20%. The “IPOHE % visual injury” value in [4] (125 g/ha) amounted to 0%; in test [4] (250 g/ha) it was 0%; in test [4] (500 g/ha), 0%; in test [4] (1000 g/ha), 30%. For the same molecule, the “STEME % visual injury” value in the test with Stellaria media (STEME) (125 g/ha) is 0%; in the test on Stellaria media (STEME) (250 g/ha) it was 30%; with Stellaria media (STEME) (500 g/ha), 40%; in the test with Stellaria media (STEME) (1000 g/ha), 95%.

For `Cc1cc(-c2cnc(NCc3cccs3)nc2C2CC2)on1` [Compound 80], the pest or weed control at 500 g/ha in [1] was determined as 30%; in test [2], 80%; in the test with Veronica persica (VERPE) (Table 3, post-emergence), 60%; in test [3] (Table 3, post-emergence), 60%.

Consider `CCN(C)c1ncc(-c2cc(C)no2)c(C(C)C)n1` [Compound 1, N-ethyl-N-methyl-5-(3-methyl-1,2-oxazol-5-yl)-4-(propan-2-yl)pyrimidin-2-amine], for which the pest or weed control at 125 g/ha in test [1] was determined as 0%; in [2], 0%; in the test with Veronica persica (VERPE) (Table 3, post-emergence), 0%; in test [3] (Table 3, post-emergence), 0%. Further, the pest or weed control at 500 g/ha came out at 0% in test [1]; 50% in test [2]; 90% in the test with Veronica persica (VERPE) (Table 3, post-emergence); 70% in test [3] (Table 3, post-emergence).

In the case of `Cc1cc(-c2cnc(N3CCC(C(N)=O)CC3)nc2-c2ccc(C)o2)on1` [Compound 19], the pest or weed control at 1000 g/ha is 0% in test [1] (1000 g/ha); 20% in test [2] (1000 g/ha); 0% in the test with Veronica persica (VERPE) (Table 3, post-emergence); 70% in test [3] (Table 3, post-emergence).

Take `COCCNc1ncc(-c2cc(C)no2)c(-c2ccc(C)o2)n1` [Compound 65]: the pest or weed control at 500 g/ha is 0% in [1]; 30% in test [2]; 0% with Veronica persica (VERPE) (Table 3, post-emergence); 60% in [3] (Table 3, post-emergence).

In the case of `Cc1cc(-c2cnc(N3CCCC3)nc2-c2ccc(C)o2)on1` [Compound 58], the pest or weed control at 500 g/ha in [1] was found to be 20%; in test [2], 10%; with Veronica persica (VERPE) (Table 3, post-emergence), 0%; in test [3] (Table 3, post-emergence), 0%.

As for `Cc1cc(-c2cnc(NC3CCOCC3)nc2C(C)C)on1` [Compound 6], the pest or weed control at 125 g/ha was found to be 50% in test [1]; 90% in test [2]; 90% in the test with Veronica persica (VERPE) (Table 3, post-emergence); 60% in test [3] (Table 3, post-emergence). Also, the pest or weed control at 250 g/ha in test [1] (250 g/ha) came to 20%; in test [2] (250 g/ha) it was 98%; in the test with Veronica persica (VERPE) (Table 3, post-emergence), 100%; in test [3] (Table 3, post-emergence), 100%.

Regarding `Cc1cc(-c2cnc(NCCCN3CCC(C)CC3)nc2-c2ccco2)on1` [Compound 25], the pest or weed control at 500 g/ha amounted to 0% in test [1]; 30% in test [2]; 0% in the test with Veronica persica (VERPE) (Table 3, post-emergence); 30% in [3] (Table 3, post-emergence).
